Assay results taken from ChEMBL document CHEMBL5291721, “A preclinical secondary pharmacology resource illuminates target-adverse drug reaction associations of marketed drugs” (Nat Commun, 2023).

How the values were obtained:
[1] = target: T1, Alpha-1A adrenergic receptor (Homo sapiens, UniProt P35348)
T1 sequence (P35348 whole entry): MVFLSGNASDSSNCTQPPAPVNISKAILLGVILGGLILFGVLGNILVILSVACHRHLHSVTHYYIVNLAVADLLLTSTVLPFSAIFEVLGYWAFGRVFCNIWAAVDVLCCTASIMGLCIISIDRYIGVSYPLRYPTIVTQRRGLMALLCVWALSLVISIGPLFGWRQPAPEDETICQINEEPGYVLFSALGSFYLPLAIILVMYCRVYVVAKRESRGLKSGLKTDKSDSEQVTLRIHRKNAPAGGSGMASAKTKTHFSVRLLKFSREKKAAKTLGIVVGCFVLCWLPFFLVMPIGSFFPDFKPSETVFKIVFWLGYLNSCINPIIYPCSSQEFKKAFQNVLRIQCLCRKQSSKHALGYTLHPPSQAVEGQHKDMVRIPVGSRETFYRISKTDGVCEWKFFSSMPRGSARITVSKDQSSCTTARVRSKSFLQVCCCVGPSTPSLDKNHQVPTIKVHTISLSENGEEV

[2] = target: T2, 5-hydroxytryptamine receptor 1A (Homo sapiens, UniProt P08908); assay type: functional, cell-based
T2 sequence (P08908 whole entry): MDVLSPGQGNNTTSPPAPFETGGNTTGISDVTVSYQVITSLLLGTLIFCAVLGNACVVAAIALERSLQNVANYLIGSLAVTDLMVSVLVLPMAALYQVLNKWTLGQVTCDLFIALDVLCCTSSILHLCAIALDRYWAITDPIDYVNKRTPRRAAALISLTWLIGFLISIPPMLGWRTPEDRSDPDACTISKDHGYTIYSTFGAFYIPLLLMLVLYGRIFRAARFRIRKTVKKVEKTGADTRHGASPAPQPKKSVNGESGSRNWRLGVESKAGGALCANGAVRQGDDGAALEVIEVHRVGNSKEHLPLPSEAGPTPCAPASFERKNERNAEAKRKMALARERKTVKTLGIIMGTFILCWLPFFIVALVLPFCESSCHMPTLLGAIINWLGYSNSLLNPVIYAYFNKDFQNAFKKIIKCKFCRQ

[3] = target: 5-hydroxytryptamine receptor 2A (Homo sapiens, UniProt P28223); assay type: functional, cell-based
Mu-type opioid receptor = Mu-type opioid receptor (Homo sapiens, UniProt P35372); assay: biochemical; assay type: functional
Vasopressin V2 receptor = Vasopressin V2 receptor (Homo sapiens, UniProt P30518)
B2 bradykinin receptor = target: T3, B2 bradykinin receptor (Homo sapiens, UniProt P30411)
T3 sequence (P30411 whole entry): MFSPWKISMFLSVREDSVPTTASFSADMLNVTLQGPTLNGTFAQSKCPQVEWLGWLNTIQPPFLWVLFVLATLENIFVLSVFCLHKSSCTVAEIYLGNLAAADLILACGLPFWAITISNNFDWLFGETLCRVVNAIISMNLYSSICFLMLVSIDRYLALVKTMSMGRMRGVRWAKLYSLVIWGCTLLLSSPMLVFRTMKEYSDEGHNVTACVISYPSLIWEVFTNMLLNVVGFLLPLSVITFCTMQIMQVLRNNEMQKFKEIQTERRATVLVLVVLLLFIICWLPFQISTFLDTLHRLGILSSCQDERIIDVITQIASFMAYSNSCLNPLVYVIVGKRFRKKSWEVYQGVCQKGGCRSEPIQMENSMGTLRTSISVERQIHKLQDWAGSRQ

[4] = target: T4, Neuropeptide Y receptor type 1 (Homo sapiens, UniProt P25929)
T4 sequence (P25929 whole entry): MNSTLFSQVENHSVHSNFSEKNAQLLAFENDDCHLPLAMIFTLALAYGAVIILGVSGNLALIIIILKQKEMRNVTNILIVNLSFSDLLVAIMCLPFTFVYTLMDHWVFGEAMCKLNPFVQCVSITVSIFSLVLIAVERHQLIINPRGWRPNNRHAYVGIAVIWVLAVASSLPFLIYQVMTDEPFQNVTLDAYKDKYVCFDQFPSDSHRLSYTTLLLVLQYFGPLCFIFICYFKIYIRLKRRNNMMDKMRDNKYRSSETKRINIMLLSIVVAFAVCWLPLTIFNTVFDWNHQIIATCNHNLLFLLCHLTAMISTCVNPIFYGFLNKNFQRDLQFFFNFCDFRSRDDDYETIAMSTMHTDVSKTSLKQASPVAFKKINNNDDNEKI

Vasopressin V1a receptor = Vasopressin V1a receptor (Homo sapiens, UniProt P37288)
[5] = target: Neuronal acetylcholine receptor subunit alpha-4 (Homo sapiens, UniProt P43681)
Progesterone receptor = target: T5, Progesterone receptor (Homo sapiens, UniProt P06401); assay type: functional
T5 sequence (P06401 whole entry): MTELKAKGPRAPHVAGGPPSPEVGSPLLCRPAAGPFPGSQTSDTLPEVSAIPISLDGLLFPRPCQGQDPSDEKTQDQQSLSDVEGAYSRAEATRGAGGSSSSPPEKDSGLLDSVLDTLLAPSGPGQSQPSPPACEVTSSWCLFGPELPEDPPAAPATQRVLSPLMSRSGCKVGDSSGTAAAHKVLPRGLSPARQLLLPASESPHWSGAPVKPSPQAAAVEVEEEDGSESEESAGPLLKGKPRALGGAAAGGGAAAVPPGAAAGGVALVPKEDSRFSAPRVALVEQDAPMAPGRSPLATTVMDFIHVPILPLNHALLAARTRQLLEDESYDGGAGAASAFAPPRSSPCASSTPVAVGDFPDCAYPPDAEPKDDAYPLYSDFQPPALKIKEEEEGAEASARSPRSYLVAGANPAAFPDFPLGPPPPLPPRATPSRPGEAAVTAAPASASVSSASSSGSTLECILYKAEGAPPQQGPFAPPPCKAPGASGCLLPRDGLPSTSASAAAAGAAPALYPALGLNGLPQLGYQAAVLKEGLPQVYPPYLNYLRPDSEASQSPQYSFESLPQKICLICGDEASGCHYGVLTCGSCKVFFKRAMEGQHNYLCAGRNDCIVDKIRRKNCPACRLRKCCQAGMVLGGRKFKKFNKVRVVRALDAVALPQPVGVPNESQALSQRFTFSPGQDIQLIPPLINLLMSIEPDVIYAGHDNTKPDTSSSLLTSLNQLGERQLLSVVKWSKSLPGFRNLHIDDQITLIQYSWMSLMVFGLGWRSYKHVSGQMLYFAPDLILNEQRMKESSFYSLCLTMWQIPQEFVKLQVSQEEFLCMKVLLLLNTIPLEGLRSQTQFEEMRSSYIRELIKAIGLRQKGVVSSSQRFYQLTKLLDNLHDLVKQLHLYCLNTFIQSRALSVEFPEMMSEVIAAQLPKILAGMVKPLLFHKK

[6] = target: Beta-2 adrenergic receptor (Homo sapiens, UniProt P07550)
Note: assay procedure not described here.

Sequence of 5-hydroxytryptamine receptor 2A (P28223 whole entry): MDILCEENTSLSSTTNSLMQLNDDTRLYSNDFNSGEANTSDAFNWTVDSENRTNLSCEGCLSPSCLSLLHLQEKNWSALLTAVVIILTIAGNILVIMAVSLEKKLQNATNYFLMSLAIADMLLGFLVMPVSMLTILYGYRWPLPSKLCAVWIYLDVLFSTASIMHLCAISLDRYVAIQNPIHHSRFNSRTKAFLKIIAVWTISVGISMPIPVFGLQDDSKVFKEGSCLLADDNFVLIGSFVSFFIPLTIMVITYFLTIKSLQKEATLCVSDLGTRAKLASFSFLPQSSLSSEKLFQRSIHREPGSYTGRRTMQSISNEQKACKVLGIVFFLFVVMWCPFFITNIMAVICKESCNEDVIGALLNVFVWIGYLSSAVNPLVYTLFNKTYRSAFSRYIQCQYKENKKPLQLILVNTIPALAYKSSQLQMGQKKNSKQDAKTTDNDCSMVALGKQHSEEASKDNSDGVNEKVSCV
Sequence of Mu-type opioid receptor (P35372 whole entry): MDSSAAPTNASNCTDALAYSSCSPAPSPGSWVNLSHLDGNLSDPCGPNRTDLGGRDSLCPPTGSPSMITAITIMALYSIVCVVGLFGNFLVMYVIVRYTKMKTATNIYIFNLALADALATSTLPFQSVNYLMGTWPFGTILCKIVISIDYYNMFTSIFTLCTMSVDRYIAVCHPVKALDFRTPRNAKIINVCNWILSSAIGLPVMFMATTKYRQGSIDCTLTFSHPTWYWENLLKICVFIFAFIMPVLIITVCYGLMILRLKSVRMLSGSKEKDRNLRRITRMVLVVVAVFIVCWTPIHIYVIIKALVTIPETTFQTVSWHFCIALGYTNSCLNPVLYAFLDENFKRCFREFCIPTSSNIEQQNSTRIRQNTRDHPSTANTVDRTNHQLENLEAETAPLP
Sequence of Vasopressin V2 receptor (P30518 whole entry): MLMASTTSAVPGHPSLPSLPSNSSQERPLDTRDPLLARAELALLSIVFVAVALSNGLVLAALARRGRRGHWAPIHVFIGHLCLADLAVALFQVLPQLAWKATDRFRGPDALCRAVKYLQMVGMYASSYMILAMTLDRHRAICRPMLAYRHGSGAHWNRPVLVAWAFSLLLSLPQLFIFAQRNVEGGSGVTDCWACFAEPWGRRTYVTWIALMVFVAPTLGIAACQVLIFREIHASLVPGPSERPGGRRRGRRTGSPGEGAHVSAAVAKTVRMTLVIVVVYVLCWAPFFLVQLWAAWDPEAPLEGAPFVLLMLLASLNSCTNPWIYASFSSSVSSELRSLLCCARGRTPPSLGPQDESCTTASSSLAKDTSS
Sequence of Beta-2 adrenergic receptor (P07550 whole entry): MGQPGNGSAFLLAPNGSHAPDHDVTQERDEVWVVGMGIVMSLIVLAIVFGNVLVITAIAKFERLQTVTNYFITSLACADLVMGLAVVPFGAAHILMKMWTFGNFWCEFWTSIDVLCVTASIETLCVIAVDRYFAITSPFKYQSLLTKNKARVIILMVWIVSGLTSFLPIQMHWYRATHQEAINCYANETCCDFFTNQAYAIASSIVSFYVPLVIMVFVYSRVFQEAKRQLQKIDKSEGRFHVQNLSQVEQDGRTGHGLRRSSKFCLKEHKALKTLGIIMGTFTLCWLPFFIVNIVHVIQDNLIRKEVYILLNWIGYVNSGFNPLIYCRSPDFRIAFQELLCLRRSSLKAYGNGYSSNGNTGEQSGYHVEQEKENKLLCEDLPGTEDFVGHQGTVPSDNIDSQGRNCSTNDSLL
Sequence of Neuronal acetylcholine receptor subunit alpha-4 (P43681 whole entry): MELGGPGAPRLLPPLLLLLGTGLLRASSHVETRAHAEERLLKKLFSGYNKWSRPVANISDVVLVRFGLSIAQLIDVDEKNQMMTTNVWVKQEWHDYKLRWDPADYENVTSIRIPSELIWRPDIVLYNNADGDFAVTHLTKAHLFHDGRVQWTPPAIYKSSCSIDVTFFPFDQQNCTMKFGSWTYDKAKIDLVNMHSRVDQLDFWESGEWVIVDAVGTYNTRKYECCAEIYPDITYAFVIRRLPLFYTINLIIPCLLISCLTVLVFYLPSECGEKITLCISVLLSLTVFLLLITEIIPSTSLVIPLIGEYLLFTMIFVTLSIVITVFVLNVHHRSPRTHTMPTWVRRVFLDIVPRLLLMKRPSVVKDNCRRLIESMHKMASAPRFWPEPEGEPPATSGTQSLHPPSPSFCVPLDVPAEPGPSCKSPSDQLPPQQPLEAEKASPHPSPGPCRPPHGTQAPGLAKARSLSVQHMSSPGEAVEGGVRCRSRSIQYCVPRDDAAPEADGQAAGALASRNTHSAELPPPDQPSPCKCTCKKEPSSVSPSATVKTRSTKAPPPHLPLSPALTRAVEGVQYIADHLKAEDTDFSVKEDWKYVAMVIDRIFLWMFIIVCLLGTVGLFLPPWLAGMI
Sequence of Vasopressin V1a receptor (P37288 whole entry): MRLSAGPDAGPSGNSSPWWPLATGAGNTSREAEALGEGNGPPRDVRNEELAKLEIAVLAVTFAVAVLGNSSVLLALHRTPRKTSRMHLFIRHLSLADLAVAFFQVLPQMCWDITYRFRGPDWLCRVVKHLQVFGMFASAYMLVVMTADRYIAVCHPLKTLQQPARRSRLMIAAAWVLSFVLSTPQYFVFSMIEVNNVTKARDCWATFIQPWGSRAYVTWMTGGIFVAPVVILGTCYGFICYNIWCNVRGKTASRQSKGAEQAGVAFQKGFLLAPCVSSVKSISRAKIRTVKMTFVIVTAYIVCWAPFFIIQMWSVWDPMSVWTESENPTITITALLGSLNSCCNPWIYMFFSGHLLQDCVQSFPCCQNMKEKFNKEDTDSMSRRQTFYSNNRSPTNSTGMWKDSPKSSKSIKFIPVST

| SMILES | AC50 [1] | AC50 [2] | AC50 [3] | AC50 (Mu-type opioid receptor) | further results |
| --- | --- | --- | --- | --- | --- |
| CN1C(=O)N(C)C2C1N(C)C(=O)N2C (stereo unspecified) [MEBICAR] | > 30 µM | > 30 µM | > 30 µM | – | – |
| Nc1ccc(/N=N/c2ccccc2)c(N)n1 [PHENAZOPYRIDINE] | 23.4 µM | – | > 30 µM | – | – |
| Cn1cc[nH]c1=S [METHIMAZOLE] | > 30 µM | – | – | – | – |
| Nc1nc(-n2cc(C(=O)O)c(=O)c3cc(F)c(N4CC(O)C4)c(Cl)c32)c(F)cc1F [DELAFLOXACIN] | > 30 µM | – | – | – | – |
| NS(=O)(=O)c1cc2c(cc1Cl)NC(CC1CCCC1)NS2(=O)=O (stereo unspecified) [CYCLOPENTHIAZIDE] | > 30 µM | > 30 µM | > 30 µM | > 30 µM | – |
| NC(=O)c1cccc2cn(-c3ccc([C@@H]4CCCNC4)cc3)nc12 [NIRAPARIB] | 29.4 µM | – | – | – | – |
| CO/N=C(\C(=O)N[C@@H]1C(=O)N2C(C(=O)OCOC(=O)C(C)(C)C)=C(C)CS[C@H]12)c1csc(N)n1 | > 30 µM | > 30 µM | > 30 µM | > 30 µM | – |
| CC(C)=CCC1C(=O)N(c2ccccc2)N(c2ccccc2)C1=O [FEPRAZONE] | > 30 µM | – | – | – | – |
| N/N=c1/cc2c(n[nH]1)CCN(C(=O)c1ccccc1)C2 [ENDRALAZINE] | > 30 µM | > 30 µM | > 30 µM | > 30 µM | – |
| COCC1=C(C(=O)OC(C)OC(=O)OC(C)C)N2C(=O)[C@@H](NC(=O)/C(=N\OC)c3csc(N)n3)[C@H]2SC1 (stereo partly specified) [CEFPODOXIME PROXETIL] | > 30 µM | > 30 µM | > 30 µM | > 30 µM | – |
| CC1=NN(c2ccccc2)C(=O)C1 [EDARAVONE] | > 30 µM | – | – | – | – |
| O=C(Cn1ccnc1[N+](=O)[O-])NCc1ccccc1 [BENZNIDAZOLE] | > 30 µM | – | > 30 µM | > 30 µM | AC50 (Vasopressin V2 receptor): > 30 µM; AC50 (B2 bradykinin receptor): > 30 µM; AC50 [4]: > 30 µM; AC50 (Vasopressin V1a receptor): > 30 µM; AC50 [5]: > 30 µM; AC50 (Progesterone receptor): > 30 µM; AC50 [6]: > 30 µM |
